Data as given in ChEMBL document CHEMBL5030512 (J Med Chem, 2021).
Calls of active or inactive are those of the source. The rule behind the calls is not given here.

Experiments:
[1] = system: HT-29; assay: Cytotoxicity against human HT-29 cells assessed as reduction in cell viability measured after 48 hrs in presence of 5 mM GSH by SRB assay; assay type: functional, cell-based; conditions: HT-29, 48 h
[2] = system: HCT-116; assay: Cytotoxicity against human HCT-116 cells assessed as reduction in cell viability measured after 48 hrs in presence of 5 mM GSH by SRB assay; assay type: functional, cell-based; conditions: HCT-116, 48 h
[3] = system: HCT-116; assay: Cytotoxicity against human HCT-116 cells assessed as reduction in cell viability measured after 48 hrs by SRB assay; assay type: functional, cell-based; conditions: HCT-116, 48 h
[4] = system: HT-29; assay: Cytotoxicity against human HT-29 cells assessed as reduction in cell viability measured after 48 hrs by SRB assay; assay type: functional, cell-based; conditions: HT-29, 48 h
[5] = system: COS-7; assay: Inhibition of GLUT1 in African green monkey COS-7 cells assessed as reduction in 2-NBDG uptake at 50 to 100 uM incubated for 90 mins by fluorescence microplate reader analysis; assay type: cell-based; conditions: Chlorocebus aethiops, dose 50-100 µM
[6] = system: HT-29; assay: Cytotoxicity against human HT-29 cells assessed as reduction in cell viability treated with 5 mM GSH measured after 48 hrs in presence of 5-FU by SRB assay; assay type: functional, cell-based; conditions: HT-29, 48 h
[7] = system: HT-29; assay: Cytotoxicity against human HT-29 cells assessed as reduction in cell viability measured after 48 hrs in presence of 5-FU by SRB assay; assay type: functional, cell-based; conditions: HT-29, 48 h
[8] = system: HCT-116; assay: Cytotoxicity against human HCT-116 cells assessed as reduction in cell viability measured after 48 hrs in presence of 5-FU by SRB assay; assay type: functional, cell-based; conditions: HCT-116, 48 h
[9] = system: HCT-116; assay: Cytotoxicity against human HCT-116 cells assessed as reduction in cell viability treated with 5 mM GSH measured after 48 hrs in presence of 5-FU by SRB assay; assay type: functional, cell-based; conditions: HCT-116, 48 h
[10] = system: Colon cancer cell line; assay: Synergistic antitumour activity against human colorectal cancer cells xenografted in BALB/c mouse assessed as reduction in tumour size at 30 mg/kg, ip administered once every 3 days for 3 weeks in presence of 10 mg/kg 5-FU; assay type: functional, organism-based
[11] = Dissociation constant, pKa of compound; assay type: physicochemical
[12] = Stability in human plasma assessed as half life measured upto 48 hrs by RP-HPLC analysis; assay type: ADME, cell-free
[13] = Biodistribution in BALB/c mouse spleen at 9.5 mg/kg, ip measured after 1 hr; assay type: ADME, organism-based; conditions: in vivo
[14] = system: NHDF; assay: Cytotoxicity against NHDF assessed as reduction in cell viability measured after 48 hrs by SRB assay; assay type: cell-based; conditions: Homo sapiens
[15] = Biodistribution in BALB/c mouse stomach at 9.5 mg/kg, ip measured after 1 hr; assay type: ADME, organism-based; conditions: in vivo
[16] = Toxicity in BALB/c mouse xenografted with human colorectal cancer cells assessed as reduction in body weight at 50 mg/kg, ip administered once every 3 days for 3 weeks; assay type: organism-based; parameters: scale not given: the % may be the effect or the level left; conditions: in vivo, 504 h
[17] = Biodistribution in BALB/c mouse kidney at 9.5 mg/kg, ip measured after 1 hr; assay type: ADME, organism-based; conditions: in vivo
[18] = system: Colon cancer cell line; assay: Antitumour activity against human colorectal cancer cells xenografted in BALB/c mouse assessed as tumour suppression at 50 mg/kg, ip administered once every 3 days for 3 weeks; assay type: functional, organism-based
[19] = Biodistribution in BALB/c mouse stomach at 50 mg/kg, ip measured after 1 hr; assay type: ADME, organism-based; conditions: in vivo
[20] = Stability of compound at pH >= 7; assay type: physicochemical
[21] = Stability of compound at pH 4 to 5; assay type: physicochemical; conditions: buffer
[22] = Biodistribution in BALB/c mouse colon at 50 mg/kg, ip measured after 1 hr; assay type: ADME, organism-based; conditions: in vivo
[23] = Drug uptake in BALB/c mouse blood at 50 mg/kg, iv measured after 4 hrs by UPLC-MS/MS method; assay type: ADME, organism-based; conditions: in vivo
[24] = Drug degradation in 5 uM GSH after 48 hrs; assay type: ADME; conditions: read-out: Drug degradation
[25] = Biodistribution in BALB/c mouse liver at 50 mg/kg, ip measured after 1 hr; assay type: ADME, organism-based; conditions: in vivo
[26] = Biodistribution in BALB/c mouse kidney assessed as 5-FU release at 50 mg/kg, ip measured after 1 hr; assay type: ADME, organism-based; conditions: in vivo
[27] = Biodistribution in BALB/c mouse colon assessed as 5-FU release at 50 mg/kg, ip measured after 1 hr; assay type: ADME, organism-based; conditions: in vivo
[28] = Biodistribution in BALB/c mouse heart at 50 mg/kg, ip measured after 1 hr; assay type: ADME, organism-based; conditions: in vivo
[29] = Biodistribution in BALB/c mouse stomach assessed as 5-FU release at 50 mg/kg, ip measured after 1 hr; assay type: ADME, organism-based; conditions: in vivo
[30] = Tmax in BALB/c mouse at 50 mg/kg, ip by LC-MS/MS analysis; assay type: ADME, organism-based; conditions: in vivo
[31] = Half life of the compound in 5 mM GSH; assay type: physicochemical
[32] = Drug uptake in BALB/c mouse blood at 50 mg/kg, iv measured after 30 mins by UPLC-MS/MS method; assay type: ADME, organism-based; conditions: in vivo, 0.5 h
[33] = Drug metabolism in 5 mM GSH assessed as 5-FU release after 48 hrs; assay type: ADME
[34] = Drug metabolism in BALB/c mouse assessed as release of 5-FU in blood at 50 mg/kg, iv measured after 2 hrs by UPLC-MS/MS analysis; assay type: ADME, organism-based; conditions: in vivo
[35] = Drug uptake in BALB/c mouse blood at 50 mg/kg, iv measured after 45 mins by UPLC-MS/MS method; assay type: ADME, organism-based; conditions: in vivo, 0.75 h

In the case of `O=C(CCCCCN1C(=O)CC(SCCOCCOCCOc2cc(O)c(C(=O)CCc3ccc(O)cc3)c(O[C@@H]3O[C@H](CO)[C@@H](O)[C@H](O)[C@H]3O)c2)C1=O)OCn1cc(F)c(=O)[nH]c1=O` (some centres not stated), the IC50 [1] is reported as 93.6 µM, the IC50 [2] is reported as > 100 µM and the IC50 [3] is reported as 97.4 µM. The IC50 [4] was > 100 µM.

In the case of `O=C(CCc1ccc(O)cc1)c1c(O)cc(OCCOCCOCCS)cc1O`, the inhibition [5] is reported as “inactive”, the IC50 [1] is reported as 24.2 µM and the IC50 [6] is reported as 3.03 µM. It also gave an IC50 [2] of 15.9 µM, an IC50 [7] of 10.3 µM and an IC50 [3] of 15.5 µM. The IC50 [8] was 10.4 µM, the IC50 [9] was 8.73 µM and the Activity [10] was “Active”. The IC50 [4] was 29.1 µM.

Molecule `O=C(CCCCCN1C(=O)CC(SCCOCCOCCOc2cc(O)c(C(=O)CCc3ccc(O)cc3)c(O)c2)C1=O)OCn1cc(F)c(=O)[nH]c1=O` (configuration not stated) has an IC50 [1] of 86.9 µM, a pKa [11] of 8.5 and an IC50 [2] of 82.8 µM. The IC50 [3] was 75 µM, the half-life [12] was 0.8 h and the IC50 [4] was 43.7 µM.

For `O=C(CCc1ccc(O)cc1)c1c(O)cc(OCCOCCOCCS)cc1O[C@@H]1O[C@H](CO)[C@@H](O)[C@H](O)[C@H]1O`, the inhibition [5] was “inactive”, the IC50 [1] was > 100 µM and the IC50 [6] was 8.58 µM. For the same molecule, the IC50 [2] was > 100 µM, the IC50 [7] was 21 µM and the IC50 [3] was > 100 µM. For the same molecule, the IC50 [8] was 21.9 µM, the IC50 [9] was 13.6 µM and the IC50 [4] was > 100 µM.

For `O=c1[nH]cc(F)c(=O)[nH]1` [FLUOROURACIL], the Drug uptake [13] was “Active”, the IC50 [14] was 70.4 µM and the Drug uptake [15] was “Active”. The Activity [16] was 10%, the Drug uptake [17] was “Active” and the Activity [18] was “Active”. The Drug uptake [19] was “Active”.

In the case of `O=C(CCCc1cn(CCOCCOCCOc2cc(O)c(C(=O)CCc3ccc(O)cc3)c(O)c2)nn1)OCn1cc(F)c(=O)[nH]c1=O`, the pKa [11] is reported as 8.5, the Stability [20] is reported as “Unstable” and the IC50 [3] is reported as > 100 µM. The half-life [12] was 3.6 h, the IC50 [4] was 85 µM and the Stability [21] was “Stable”.

For `O=C(CCCc1cn(CCOCCOCCOc2cc(O)c(C(=O)CCc3ccc(O)cc3)c(O[C@@H]3O[C@H](CO)[C@@H](O)[C@H](O)[C@H]3O)c2)nn1)OCn1cc(F)c(=O)[nH]c1=O`, the IC50 [3] was > 100 µM and the IC50 [4] was > 100 µM.

For `O=C(CCc1ccc(O)cc1)c1c(O)cc(O)cc1O[C@@H]1O[C@H](CO)[C@@H](O)[C@H](O)[C@H]1O`, the inhibition [5] was “inactive”.

In the case of `O=C(CCCSSCCOCCOCCOc1cc(O)c(C(=O)CCc2ccc(O)cc2)c(O)c1)OCn1cc(F)c(=O)[nH]c1=O`, the Drug uptake [22] is reported as “Active”, the Drug uptake [23] is reported as “Active” and the IC50 [14] is reported as 90 µM. The degraded at 48 h [24] was 30%, the Drug uptake [25] was “Active” and the IC50 [1] was 3.8 µM. For the same molecule, the Drug uptake [26] was “Active”, the Drug uptake [27] was “Active” and the Drug uptake [28] was “Active”. The Activity [16] was “Non-Toxic”, the Drug uptake [29] was “Active” and the Tmax [30] was 0.75 h. For the same molecule, the t1/2 [31] was 4 h, the IC50 [2] was 10.5 µM and the Drug uptake [32] was “Not Active”. For the same molecule, the Drug metabolism [33] was “Dose-Dependent Effect”, the IC50 [3] was 21.2 µM and the Drug metabolism [34] was “Metabolite_Detected”. The Drug uptake [35] was “Active”, the half-life [12] was 13 h and the Activity [18] was “Active”. The Drug uptake [19] was “Active” and the IC50 [4] was 19.6 µM.

Molecule `O=C(CCCSSCCOCCOCCOc1cc(O)c(C(=O)CCc2ccc(O)cc2)c(O[C@@H]2O[C@H](CO)[C@@H](O)[C@H](O)[C@H]2O)c1)OCn1cc(F)c(=O)[nH]c1=O` has an IC50 [1] of 8 µM, an IC50 [2] of 23.8 µM and an IC50 [3] of 54.9 µM. It also gave an IC50 [4] of 59.8 µM.
